Assay results: the kinase profiling compilation of Christmann-Franck et al. (2016)

What was measured:
Test in all cases: KINOMEscan competition binding
Conditions in all cases: compound 1.0 µM
AXL (human) = AXL (human) (UniProt P30530)
[1] = tested on: KIT (human), P10721 [D816V]
SIK1 (human) = SIK1 (human) (UniProt P57059)
DCLK2 (human) = DCLK2 (human) (UniProt Q8N568)
CDC2L2 (human) = CDC2L2 (human) (UniProt Q9UQ88)
GRK1 (human) = GRK1 (human) (UniProt Q15835)
RPS6KA4 KD2 (human) = RPS6KA4 KD2 (human) (UniProt O75676)
STK33 (human) = STK33 (human) (UniProt Q9BYT3)
MAPK14 (human) = MAPK14 (human) (UniProt Q16539)
[2] = target: TYK2 JH1 catalytic (human) (UniProt P29597)
SRC (human) = SRC (human) (UniProt P12931)
FRK (human) = FRK (human) (UniProt P42685)
PKMYT1 (human) = PKMYT1 (human) (UniProt Q99640)
HUNK (human) = HUNK (human) (UniProt P57058)
[3] = tested on: EGFR (human), P00533 [A750P; 747-749 del]
ROCK2 (human) = ROCK2 (human) (UniProt O75116)
SRMS (human) = SRMS (human) (UniProt Q9H3Y6)
INSRR (human) = INSRR (human) (UniProt P14616)
GSK3A (human) = GSK3A (human) (UniProt P49840)
TTK (human) = TTK (human) (UniProt P33981)
CLK2 (human) = CLK2 (human) (UniProt P49760)
PDGFRA (human) = PDGFRA (human) (UniProt P16234)
MAP3K3 (human) = MAP3K3 (human) (UniProt Q99759)
PRPF4B (human) = PRPF4B (human) (UniProt Q13523)
TYRO3 (human) = TYRO3 (human) (UniProt Q06418)
MAP3K9 (human) = MAP3K9 (human) (UniProt P80192)
PIK3C2B (human) = PIK3C2B (human) (UniProt O00750)
MST4 (human) = MST4 (human) (UniProt Q9P289)
[4] = tested on: MET (human), P08581 [Y1235D]
EPHA1 (human) = EPHA1 (human) (UniProt P21709)
RPS6KB1 (human) = RPS6KB1 (human) (UniProt P23443)
CDK8 (human) = CDK8 (human) (UniProt P49336)
FGFR1 (human) = FGFR1 (human) (UniProt P11362)
EGFR (human) = EGFR (human) (UniProt P00533)
PRKD2 (human) = PRKD2 (human) (UniProt Q9BZL6)
MYLK4 (human) = MYLK4 (human) (UniProt Q86YV6)
YES1 (human) = YES1 (human) (UniProt P07947)
EPHA3 (human) = EPHA3 (human) (UniProt P29320)
MYLK2 (human) = MYLK2 (human) (UniProt Q9H1R3)
ACVR1B (human) = ACVR1B (human) (UniProt P36896)
ERN1 (human) = ERN1 (human) (UniProt O75460)
BMPR1B (human) = BMPR1B (human) (UniProt O00238)
RPS6KA1 KD2 (human) = RPS6KA1 KD2 (human) (UniProt Q15418)

Sequence of PIK3C2B (human) (O00750 whole entry, looked up): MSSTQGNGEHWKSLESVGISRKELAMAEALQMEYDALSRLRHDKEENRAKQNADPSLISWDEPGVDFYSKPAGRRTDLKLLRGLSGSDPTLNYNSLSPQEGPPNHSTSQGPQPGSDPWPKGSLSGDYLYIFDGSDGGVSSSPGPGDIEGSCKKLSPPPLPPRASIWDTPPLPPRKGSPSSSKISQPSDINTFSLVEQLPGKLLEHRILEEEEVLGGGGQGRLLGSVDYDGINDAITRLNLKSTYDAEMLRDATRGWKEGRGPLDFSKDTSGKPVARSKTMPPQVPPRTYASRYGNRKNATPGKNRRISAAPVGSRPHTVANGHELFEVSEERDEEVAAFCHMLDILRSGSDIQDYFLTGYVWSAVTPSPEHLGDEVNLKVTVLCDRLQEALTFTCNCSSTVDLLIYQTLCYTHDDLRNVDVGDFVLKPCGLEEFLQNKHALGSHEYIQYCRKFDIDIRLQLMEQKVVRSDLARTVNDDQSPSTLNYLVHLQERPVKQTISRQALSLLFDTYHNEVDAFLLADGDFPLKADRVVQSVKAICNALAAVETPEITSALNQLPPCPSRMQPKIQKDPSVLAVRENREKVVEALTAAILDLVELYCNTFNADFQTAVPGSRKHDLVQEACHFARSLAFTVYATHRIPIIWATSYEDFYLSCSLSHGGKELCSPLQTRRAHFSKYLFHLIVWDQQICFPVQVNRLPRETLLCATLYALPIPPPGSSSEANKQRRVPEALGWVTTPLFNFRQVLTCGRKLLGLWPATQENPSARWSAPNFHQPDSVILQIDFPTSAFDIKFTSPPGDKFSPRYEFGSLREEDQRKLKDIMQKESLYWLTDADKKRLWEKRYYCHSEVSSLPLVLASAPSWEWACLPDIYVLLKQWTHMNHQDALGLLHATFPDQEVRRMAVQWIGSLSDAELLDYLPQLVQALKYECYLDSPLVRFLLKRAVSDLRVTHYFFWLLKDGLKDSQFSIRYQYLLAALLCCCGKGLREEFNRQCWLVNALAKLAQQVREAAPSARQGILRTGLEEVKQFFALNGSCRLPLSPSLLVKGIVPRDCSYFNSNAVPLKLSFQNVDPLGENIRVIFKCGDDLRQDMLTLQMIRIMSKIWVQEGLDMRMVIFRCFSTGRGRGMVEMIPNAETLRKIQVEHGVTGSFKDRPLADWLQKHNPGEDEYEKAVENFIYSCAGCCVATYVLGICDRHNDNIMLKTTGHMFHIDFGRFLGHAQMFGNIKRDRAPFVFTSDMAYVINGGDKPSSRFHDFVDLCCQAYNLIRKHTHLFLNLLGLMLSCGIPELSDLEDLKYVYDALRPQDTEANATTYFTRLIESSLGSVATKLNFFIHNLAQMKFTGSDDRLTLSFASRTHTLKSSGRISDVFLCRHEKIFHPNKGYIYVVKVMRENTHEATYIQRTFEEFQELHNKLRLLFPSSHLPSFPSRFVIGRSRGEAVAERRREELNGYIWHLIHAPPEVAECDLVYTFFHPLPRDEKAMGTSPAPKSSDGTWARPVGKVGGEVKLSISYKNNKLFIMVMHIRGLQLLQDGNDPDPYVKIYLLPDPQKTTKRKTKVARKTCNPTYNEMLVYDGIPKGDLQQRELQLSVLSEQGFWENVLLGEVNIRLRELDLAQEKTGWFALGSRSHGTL
Sequence of MAPK14 (human) (Q16539 whole entry, looked up): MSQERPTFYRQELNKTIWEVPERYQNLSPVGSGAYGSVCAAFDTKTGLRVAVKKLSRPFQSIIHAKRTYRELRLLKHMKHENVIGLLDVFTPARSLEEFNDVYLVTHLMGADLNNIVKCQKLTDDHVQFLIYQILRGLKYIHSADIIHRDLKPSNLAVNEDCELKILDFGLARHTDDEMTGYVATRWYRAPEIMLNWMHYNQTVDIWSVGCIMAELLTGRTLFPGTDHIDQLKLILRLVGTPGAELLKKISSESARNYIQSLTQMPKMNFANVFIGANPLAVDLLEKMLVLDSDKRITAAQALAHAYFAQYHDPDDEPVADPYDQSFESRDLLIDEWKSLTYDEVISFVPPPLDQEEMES
Sequence of PDGFRA (human) (P16234 whole entry, looked up): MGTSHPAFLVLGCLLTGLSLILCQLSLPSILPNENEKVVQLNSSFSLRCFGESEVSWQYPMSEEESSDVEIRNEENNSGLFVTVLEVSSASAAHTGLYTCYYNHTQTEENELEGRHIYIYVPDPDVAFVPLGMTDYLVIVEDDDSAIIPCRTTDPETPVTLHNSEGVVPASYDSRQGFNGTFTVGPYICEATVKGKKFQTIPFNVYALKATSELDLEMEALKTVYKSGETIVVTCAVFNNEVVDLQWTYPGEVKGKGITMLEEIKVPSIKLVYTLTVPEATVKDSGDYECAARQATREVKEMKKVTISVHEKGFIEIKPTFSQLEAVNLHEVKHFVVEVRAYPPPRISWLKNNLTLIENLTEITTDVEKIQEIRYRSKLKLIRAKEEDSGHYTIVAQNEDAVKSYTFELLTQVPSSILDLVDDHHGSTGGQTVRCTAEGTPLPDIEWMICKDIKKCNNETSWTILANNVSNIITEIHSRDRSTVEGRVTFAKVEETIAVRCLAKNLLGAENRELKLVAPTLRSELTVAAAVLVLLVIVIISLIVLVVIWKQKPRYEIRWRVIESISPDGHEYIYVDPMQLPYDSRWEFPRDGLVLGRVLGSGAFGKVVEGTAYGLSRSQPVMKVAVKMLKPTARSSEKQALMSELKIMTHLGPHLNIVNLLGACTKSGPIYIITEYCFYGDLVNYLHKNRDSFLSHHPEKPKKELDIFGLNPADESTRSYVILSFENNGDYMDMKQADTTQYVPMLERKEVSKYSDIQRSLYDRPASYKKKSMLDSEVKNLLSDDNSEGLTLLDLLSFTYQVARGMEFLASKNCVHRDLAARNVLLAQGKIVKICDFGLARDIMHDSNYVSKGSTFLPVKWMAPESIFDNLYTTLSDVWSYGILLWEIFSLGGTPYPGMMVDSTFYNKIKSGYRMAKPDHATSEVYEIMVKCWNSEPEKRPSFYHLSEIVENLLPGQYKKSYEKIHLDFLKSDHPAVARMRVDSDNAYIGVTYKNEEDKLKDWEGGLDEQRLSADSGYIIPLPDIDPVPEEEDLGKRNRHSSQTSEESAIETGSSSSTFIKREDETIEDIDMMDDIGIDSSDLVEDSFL
Sequence of HUNK (human) (P57058 whole entry, looked up): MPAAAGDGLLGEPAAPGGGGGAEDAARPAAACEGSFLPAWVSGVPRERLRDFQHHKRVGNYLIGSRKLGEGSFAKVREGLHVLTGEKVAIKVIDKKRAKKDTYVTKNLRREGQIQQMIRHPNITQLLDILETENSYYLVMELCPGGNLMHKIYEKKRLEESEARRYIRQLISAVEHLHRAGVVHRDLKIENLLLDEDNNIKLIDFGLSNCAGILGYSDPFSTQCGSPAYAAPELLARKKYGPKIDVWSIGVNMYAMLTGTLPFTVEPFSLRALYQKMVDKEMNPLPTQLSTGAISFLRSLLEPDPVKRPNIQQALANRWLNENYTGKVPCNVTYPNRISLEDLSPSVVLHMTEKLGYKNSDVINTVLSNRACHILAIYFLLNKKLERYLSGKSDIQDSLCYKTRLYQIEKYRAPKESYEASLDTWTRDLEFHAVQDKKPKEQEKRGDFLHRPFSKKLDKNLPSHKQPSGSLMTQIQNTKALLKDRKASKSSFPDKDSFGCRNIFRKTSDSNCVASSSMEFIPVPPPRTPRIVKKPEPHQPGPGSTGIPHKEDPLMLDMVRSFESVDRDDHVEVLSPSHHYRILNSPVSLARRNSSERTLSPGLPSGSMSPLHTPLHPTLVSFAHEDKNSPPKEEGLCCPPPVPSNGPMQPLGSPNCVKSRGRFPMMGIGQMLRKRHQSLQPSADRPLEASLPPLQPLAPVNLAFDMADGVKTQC
Sequence of MST4 (human) (Q9P289 whole entry, looked up): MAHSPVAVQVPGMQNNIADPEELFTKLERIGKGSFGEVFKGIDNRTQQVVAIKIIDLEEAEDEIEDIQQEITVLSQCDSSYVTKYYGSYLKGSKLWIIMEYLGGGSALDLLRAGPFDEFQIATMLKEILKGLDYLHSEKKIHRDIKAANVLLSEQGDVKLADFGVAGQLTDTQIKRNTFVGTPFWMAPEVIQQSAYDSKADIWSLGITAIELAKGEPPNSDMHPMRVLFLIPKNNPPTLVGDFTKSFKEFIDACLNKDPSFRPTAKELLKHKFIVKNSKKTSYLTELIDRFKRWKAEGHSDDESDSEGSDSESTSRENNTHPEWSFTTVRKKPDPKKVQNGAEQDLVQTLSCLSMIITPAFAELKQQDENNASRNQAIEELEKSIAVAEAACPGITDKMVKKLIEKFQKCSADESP
Sequence of FRK (human) (P42685 whole entry, looked up): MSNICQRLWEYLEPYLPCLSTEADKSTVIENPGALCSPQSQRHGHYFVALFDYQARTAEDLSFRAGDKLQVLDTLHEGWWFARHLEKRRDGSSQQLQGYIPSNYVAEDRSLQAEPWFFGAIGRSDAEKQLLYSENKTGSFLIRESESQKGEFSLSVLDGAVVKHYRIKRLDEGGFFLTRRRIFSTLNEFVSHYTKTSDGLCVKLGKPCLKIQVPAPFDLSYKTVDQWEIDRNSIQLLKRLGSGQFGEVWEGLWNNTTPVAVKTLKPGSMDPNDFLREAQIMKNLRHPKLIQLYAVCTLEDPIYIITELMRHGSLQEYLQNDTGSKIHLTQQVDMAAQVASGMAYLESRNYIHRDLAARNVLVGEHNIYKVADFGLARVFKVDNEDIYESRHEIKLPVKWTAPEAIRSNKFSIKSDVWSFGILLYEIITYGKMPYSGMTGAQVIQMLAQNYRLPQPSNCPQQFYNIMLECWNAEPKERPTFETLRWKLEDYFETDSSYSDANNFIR

Compound: COCCNCCCn1c(C(=O)CF)c(-c2ccc(C)cc2)c2c(N)ncnc21
- kinase still bound, per cent of control (AXL (human)): 81%
- kinase still bound, per cent of control [1]: 96%
- kinase still bound, per cent of control (SIK1 (human)): 98%
- kinase still bound, per cent of control (DCLK2 (human)): 100%
- kinase still bound, per cent of control (CDC2L2 (human)): 100%
- kinase still bound, per cent of control (GRK1 (human)): 100%
- kinase still bound, per cent of control (RPS6KA4 KD2 (human)): 100%
- kinase still bound, per cent of control (STK33 (human)): 100%
- kinase still bound, per cent of control (MAPK14 (human)): 96%
- kinase still bound, per cent of control [2]: 100%
- kinase still bound, per cent of control (SRC (human)): 98%
- kinase still bound, per cent of control (FRK (human)): 81%
- kinase still bound, per cent of control (PKMYT1 (human)): 86%
- kinase still bound, per cent of control (HUNK (human)): 100%
- kinase still bound, per cent of control [3]: 67%
- kinase still bound, per cent of control (ROCK2 (human)): 94%
- kinase still bound, per cent of control (SRMS (human)): 99%
- kinase still bound, per cent of control (INSRR (human)): 100%
- kinase still bound, per cent of control (GSK3A (human)): 100%
- kinase still bound, per cent of control (TTK (human)): 95%
- kinase still bound, per cent of control (CLK2 (human)): 100%
- kinase still bound, per cent of control (PDGFRA (human)): 83%
- kinase still bound, per cent of control (MAP3K3 (human)): 96%
- kinase still bound, per cent of control (PRPF4B (human)): 100%
- kinase still bound, per cent of control (TYRO3 (human)): 100%
- kinase still bound, per cent of control (MAP3K9 (human)): 100%
- kinase still bound, per cent of control (PIK3C2B (human)): 100%
- kinase still bound, per cent of control (MST4 (human)): 69%
- kinase still bound, per cent of control [4]: 81%
- kinase still bound, per cent of control (EPHA1 (human)): 94%
- kinase still bound, per cent of control (RPS6KB1 (human)): 100%
- kinase still bound, per cent of control (CDK8 (human)): 100%
- kinase still bound, per cent of control (FGFR1 (human)): 98%
- kinase still bound, per cent of control (EGFR (human)): 96%
- kinase still bound, per cent of control (PRKD2 (human)): 100%
- kinase still bound, per cent of control (MYLK4 (human)): 86%
- kinase still bound, per cent of control (YES1 (human)): 92%
- kinase still bound, per cent of control (EPHA3 (human)): 88%
- kinase still bound, per cent of control (MYLK2 (human)): 95%
- kinase still bound, per cent of control (ACVR1B (human)): 91%
- kinase still bound, per cent of control (ERN1 (human)): 99%
- kinase still bound, per cent of control (BMPR1B (human)): 85%
- kinase still bound, per cent of control (RPS6KA1 KD2 (human)): 31%
